Here are results for three compounds from patent publication US12441743B2, “Spiro aromatic ring compound and use thereof” (Etern Biopharma (Shanghai) Co., Ltd., priority 2018, dated 2025).

One data set deals with MV4-11 cells. Briefly: MV4-11 cell proliferation inhibition experiment (CellTiter-Glo). The data set is classed as cell-based. The settings on record: Homo sapiens; MV4-11 cells, 72 h, CellTiter-Glo; read-out: Cell proliferation inhibition activity. The protocol: The number of living cells in the culture was determined by quantitative determination of intracellular ATP using CellTiter-Glo® Luminescent Cell Viability Assay kit.
In the first step, MV4-11 cells were inoculated into 96-well plates with a density of 2500 cells per well and a volume of 100 μL per well. The plates were placed in 37° C., 5% carbon dioxide incubator overnight.
In the second step, cells were treated with compounds. The compounds to be tested were diluted 3 times, and 8 concentration gradients were set up. Each well was added with a certain volume of DMSO or the compound to be tested, and each concentration was tested in 2 replicates, and the final concentration of DMSO was 0.5%. The plates were placed in 37° C., 5% carbon dioxide incubator for 72 h.
In the third step, cell viability of the control groups and the treatment groups was determined using CellTiter-Glo® Luminescent Cell Viability Assay kit (Promega, G7570). Each well was added with 50 uL CellTiter-Glo. The culture was mixed well, and incubated at room temperature for 10 min. Signals were read using EnSpire (Perkin Elmer). Inhibition percentages (%) were calculated by the following formula:
Inhibition percentage (%)=(1−signal value of compound treatment group/signal value of DMSO treatment group)*100.
(In general: In ATP-based viability assays light output follows the ATP content of the culture.)

Data set [1] in a line: Pharmacokinetics experiment, intragastric single dose. Format: in vivo. As to conditions: mouse, plasma, male mice, oral administration dosage 5 mg/Kg; for half-life: read-out: Half-life T1/2 (converted); for Cmax: read-out: Maximum plasma concentration Cmax; for AUC: read-out: Plasma exposure AUC. As for the experimental part:
Pharmacokinetics of the compound of the disclosure was determined. The following method was used to determine the pharmacokinetic parameters of the compound of the disclosure. Healthy male adult mice were used in the study. Each group was intragastrically administered with a single dose of 5-100 mg/kg. Fasting lasted from 10 hours before administration to 4 hours after administration. Blood samples were collected at different time points after administration and the compound content in plasma was determined by LC-MS/MS. The relationship between plasma concentration and time was analyzed by professional software (winnonlin), and the pharmacokinetic parameters of the compounds were calculated. According to Table 3, the compounds of the disclosure have excellent pharmacokinetic properties.

A further data set addresses T1, SHP2 E76A protein (Homo sapiens, UniProt Q06124, E76A).
T1 sequence (Q06124 1-593 E76A): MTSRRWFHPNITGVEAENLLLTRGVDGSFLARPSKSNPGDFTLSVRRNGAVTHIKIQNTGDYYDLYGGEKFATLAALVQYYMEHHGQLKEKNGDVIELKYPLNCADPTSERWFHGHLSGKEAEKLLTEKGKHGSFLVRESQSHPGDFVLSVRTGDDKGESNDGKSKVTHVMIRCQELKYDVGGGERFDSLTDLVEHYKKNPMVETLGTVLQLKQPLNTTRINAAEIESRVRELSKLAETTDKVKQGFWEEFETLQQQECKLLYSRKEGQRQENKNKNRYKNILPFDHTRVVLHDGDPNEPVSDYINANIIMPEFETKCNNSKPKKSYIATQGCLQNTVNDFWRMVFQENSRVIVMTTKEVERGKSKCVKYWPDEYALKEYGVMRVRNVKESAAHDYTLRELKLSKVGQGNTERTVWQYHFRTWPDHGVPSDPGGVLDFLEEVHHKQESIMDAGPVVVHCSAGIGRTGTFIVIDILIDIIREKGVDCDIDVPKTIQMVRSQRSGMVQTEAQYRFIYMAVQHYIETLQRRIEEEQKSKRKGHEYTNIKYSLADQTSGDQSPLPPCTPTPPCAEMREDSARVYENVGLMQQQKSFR
Briefly: SHP2 enzyme activity inhibition test (DiFMUP substrate, fluorescence). The data set is classed as biochemical. The settings on record: 50 ng SHP2 E76A, 20 min with compound, then 10 uM DiFMUP 20 min at room temperature.

As a reminder, the bioavailability is dose-corrected exposure relative to a reference, in per cent. A high value points to much systemic uptake. Usually AUC stands for the area under the concentration-time curve, a measure of exposure. For the compound `Nc1nccc(Sc2cnc(N3CCC4(CC3)Cc3ncccc3[C@H]4N)n3ccnc23)c1Cl` [Compound 6, (S)-1′-(8-((2-amino-3-chloropyridin-4-yl)thio)imidazo[1,2-c]pyrimidin-5-yl)-5,7-dihydrospiro[cyclopenta[b]pyridine-6,4′-piperidine]-5-amine], the IC50 in the data set with MV4-11 cells amounted to 4 nM. Also, in data set [1], the bioavailability came out at 37%, the half-life is 3.1 h, the Cmax was determined as 6 µM and the area under the curve (AUC) came to 35 µM·h. The IC50 at SHP2 E76A protein came to 6 nM.

In the case of `Nc1nccc(Sc2cnc(N3CCC4(CC3)Cc3ccccc3[C@H]4N)n3ccnc23)c1Cl` [Compound 4, (S)-1′-(8-((2-amino-3-chloropyridin-4-yl)thio)imidazolo[1,2-c]pyrimidin-5-yl)-1,3-dihydrospirolindene-2,4′-piperidinel-1-amine], the IC50 with MV4-11 cells was 7 nM. Also, in data set [1], the bioavailability is 34%, the half-life was 5.4 h, the Cmax is 7 µM and the AUC was found to be 29 µM·h. The IC50 at SHP2 E76A protein is 7 nM.

For `Nc1nccc(Sc2cnc(N3CCC4(CC3)Cc3nccnc3[C@H]4N)n3ccnc23)c1Cl` [Compound 18, (S)-1′-(8-((2-amino-3-chloropyridin-4-yl)thio)imidazo[1,2-c]pyrimidin-5-yl)-5,7-dihydrospiro[cyclopenta[b]pyrazine-6,4′-piperidine]-5-amine], the IC50 in the data set with MV4-11 cells stood at 42 nM. Also, in data set [1], the bioavailability worked out at 72%, the half-life is 3.5 h, the Cmax stood at 6.5 µM and the AUC stood at 40 µM·h. In addition, the IC50 at SHP2 E76A protein was 7 nM.
